Reference: publication PMC7070036, “An amber obligate active site-directed ligand evolution technique for phage display” (Nature Communications, 2020)
Values joined by “and” are separate entries in the source; they are usually repeats but may differ in a detail not shown here. Equal values may be shown once. Non-standard residues stand in square brackets, D forms with d. Residues, ends and D or L forms follow the SMILES beside them. Lys(thiomyristoyl) = CCCCCCCCCCCCCC(=S)NCCCC[C@H](N)C(=O)O

Biological target: T1, SIRT2 (Homo sapiens, UniProt Q8IXJ6)
T1 sequence (Q8IXJ6 1-389): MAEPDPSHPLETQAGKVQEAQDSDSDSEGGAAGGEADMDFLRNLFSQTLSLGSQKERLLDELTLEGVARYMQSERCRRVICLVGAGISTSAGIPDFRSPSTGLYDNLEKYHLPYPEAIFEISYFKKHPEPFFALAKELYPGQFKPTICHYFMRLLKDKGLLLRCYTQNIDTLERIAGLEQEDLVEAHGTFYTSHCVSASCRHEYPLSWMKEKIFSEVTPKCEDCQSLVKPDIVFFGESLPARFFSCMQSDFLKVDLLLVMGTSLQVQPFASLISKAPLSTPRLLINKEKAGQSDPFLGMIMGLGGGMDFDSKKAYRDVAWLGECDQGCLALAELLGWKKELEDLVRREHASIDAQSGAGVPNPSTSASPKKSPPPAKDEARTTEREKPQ
Assay: SIRT2 inhibition assay for thiomyristoyl peptides
Assay type: biochemical
Method: Assays were performed in 40-µL volumes at 37 °C in black, 384-well plates. […] Following incubation, the reaction started with the addition of the fluorogenic substrate (5 µM), and product formation was monitored by measuring the fluorescence intensity every 20 s for 5 min (SIRT2) in a BioTek Synergy H1 microplate reader at λex = 320 nm and λem = 408 nm (gain = 130 and read height = 7 mm). Initial rates were determined using the plot of fluorescence vs. time for linear portions of each curve. IC50 values were then determined using GraphPad Prism to fit a nonlinear regression to the normalized rates vs. inhibitor concentration.

Structure (SMILES): CCCCCCCCCCCCCC(=S)NCCCC[C@H](NC(=O)[C@@H](NC(=O)[C@@H](NC(=O)[C@H](CS)NC(=O)[C@@H](N)[C@@H](C)O)[C@@H](C)O)C(C)C)C(=O)N[C@H](C(=O)NCC(N)=O)[C@@H](C)CC [S2P04-tMyK] (H-TCTV[Lys(thiomyristoyl)]IG-NH2)
- IC50 (10 nM SIRT2, 15 min preincubation, 5 µM substrate, n = 2): 13 ± 4 nM
- activity at 0.000466362 µM (inhibitor 0.466362 nM): 95.3%
- %Activity, SIRT2 (inhibitor 0.466362 nM, 0.000466362 µM): 104.732%
- activity at 0.000932724 µM (inhibitor 0.932724 nM): 97.9%
- %Activity, SIRT2 (inhibitor 0.932724 nM, 0.000932724 µM): 100.382%
- %Activity, SIRT2 (inhibitor 1.86545 nM, 0.00186545 µM): 87.5221% and 108.94%
- %Activity, SIRT2 (inhibitor 3.7309 nM, 0.0037309 µM): 78.4292% and 108.338%
- activity at 0.0074618 µM (inhibitor 7.4618 nM): 77.8%
- %Activity, SIRT2 (inhibitor 7.4618 nM, 0.0074618 µM): 66.6253%
- %Activity, SIRT2 (inhibitor 14.9236 nM, 0.0149236 µM): 48.6419% and 27.9749%
- activity at 0.0596944 µM (inhibitor 59.6944 nM): 11%
- %Activity, SIRT2 (inhibitor 59.6944 nM, 0.0596944 µM): 20.9299%
- %Activity, SIRT2 (inhibitor 955.11 nM, 0.95511 µM): -1.089% and 1.089%

Structure (SMILES): CCCCCCCCCCCCCC(=S)NCCCC[C@H](NC(=O)OCc1ccccc1)C(=O)Nc1ccccc1 [TM, reference compound]
- activity at 0.000488281 µM (inhibitor 0.488281 nM): 101%
- %Activity, SIRT2 (inhibitor 0.488281 nM, 0.000488281 µM): 98.9615%
- activity at 0.000976562 µM (inhibitor 0.976562 nM): 72.4%
- %Activity, SIRT2 (inhibitor 0.976562 nM, 0.000976562 µM): 83.3212% and 86.8904% and 88.3827%
- activity at 0.00195312 µM (inhibitor 1.95312 nM): 90.7%
- %Activity, SIRT2 (inhibitor 1.95312 nM, 0.00195312 µM): 86.75%
- %Activity, SIRT2 (inhibitor 3.90625 nM, 0.00390625 µM): 101.659% and 86.3725% and 107.923%
- %Activity, SIRT2 (inhibitor 7.8125 nM, 0.0078125 µM): 82.8428% and 60.4593% and 105.944% and 110.889%
- activity at 0.015625 µM (inhibitor 15.625 nM): 83.3%
- %Activity, SIRT2 (inhibitor 15.625 nM, 0.015625 µM): 84.6885%
- activity at 0.0625 µM (inhibitor 62.5 nM): 60.2%
- %Activity, SIRT2 (inhibitor 62.5 nM, 0.0625 µM): 43.9326%
- activity at 0.125 µM (inhibitor 125 nM): 22.5%
- %Activity, SIRT2 (inhibitor 125 nM, 0.125 µM): 19.1421%
- activity at 0.25 µM (inhibitor 250 nM): 12.4%
- %Activity, SIRT2 (inhibitor 250 nM, 0.25 µM): 20.6592%
- %Activity, SIRT2 (inhibitor 500 nM, 0.5 µM): 1.575% and -2.11% and 0.5358%
- activity at 1 µM (inhibitor 1000 nM): 5.56%
- %Activity, SIRT2 (inhibitor 1000 nM, 1 µM): 5.083%
